The text below walks through data of patent US8455658B2, “Thiazole and thiadiazole compounds for inflammation and immune-related uses” (Synta Pharmaceuticals Corp., priority 2006, dated 2013).

Molecules are shown by their SMILES. A value given as a limit tells only on which side of the number the result lay.

For this assay, the system named is IL-2 production. Kind of assay: Inhibition of IL-2 production in PHA-activated Jurkat cells (ELISA). It counts as cell-based. The note with it: Homo sapiens, Jurkat, 20 h, PHA 2.5 μg/mL, IL-2 ELISA. As to the method:
Jurkat cells were placed in a 96 well plate (0.5 million cells per well in 1% FBS medium) then a test compound of this invention was added at different concentrations. After 10 minutes, the cells were activated with PHA (final concentration 2.5 μg/mL) and incubated for 20 hours at 37° C. under CO2. The final volume was 200 μL. Following incubation, the cells were centrifuged and the supernatants collected and stored at −70° C. prior to assaying for IL-2 production. A commercial ELISA kit (IL-2 Eli-pair, Diaclone Research, Besancon, France) was used to detect production of IL-2, from which dose response curves were obtained.
Compound `O=C(Nc1nnc(-c2cc(C(F)(F)F)ccc2Cl)s1)c1c(F)cccc1F` [Compound 44, N-[5-(2-Chloro-5-trifluoromethyl-phenyl)-[1,3,4]thiadiazol-2-yl]-2,6-difluoro-benzamide] displayed an IC50 greater than 1000 nM.

In turn, `O=C(Nc1ncc(-c2cc(C(F)(F)F)ccc2Cl)s1)c1c(F)cccc1F` [Compound 4, N-[5-(2-Chloro-5-trifluoromethyl-phenyl)-thiazol-2-yl]-2,6-difluoro-benzamide] gave an IC50 of 50 to 100 nM.

`C=CCOc1ccc(C(F)(F)F)cc1-c1sc(NC(=O)c2c(F)cccc2F)nc1C(=O)OC` [Compound 63, Methyl 5-(2-(allyloxy)-5-(trifluoromethyl)phenyl)-2-(2,6-difluorobenzamido)thiazole-4-carboxylate] gave an IC50 greater than 1000 nM.

`O=C(Nc1nc(C2=NCCO2)c(-c2cccc(C(F)(F)F)c2)s1)c1c(F)cccc1F` [Compound 89, N-(4-(4,5-dihydrooxazol-2-yl)-5-(3-(trifluoromethyl)phenyl)thiazol-2-yl)-2,6-difluorobenzamide] showed an IC50 of 200 to 500 nM.

For `Cc1nc(NC(=O)c2c(F)cccc2F)sc1-c1ccc2c(c1)OCO2` [Compound 57, N-(5-(Benzo[d][1,3]dioxol-5-yl)-4-methylthiazol-2-yl)-2,6-difluorobenzamide], the IC50 was in the range of 200 to 500 nM.

As for `O=C(Nc1nc(-c2nnco2)c(-c2cccc(C(F)(F)F)c2)s1)c1c(F)cccc1F` [Compound 90, N-(4-(1,3,4-oxadiazol-2-yl)-5-(3-(trifluoromethyl)phenyl)thiazol-2-yl)-2,6-difluorobenzamide], the IC50 was in the range of 200 to 500 nM.

In turn, `O=C(Nc1nc(C(O)c2ccccn2)c(-c2cccc(C(F)(F)F)c2)s1)c1c(F)cccc1F` (stereo not drawn) [Compound 83, 2,6-difluoro-N-(4-(hydroxy(pyridin-2-yl)methyl)-5-(3-(trifluoromethyl)phenyl)thiazol-2-yl)benzamide] gave an IC50 greater than 1000 nM.

Regarding `O=C(Nc1nc(-c2ncco2)c(-c2cccc(C(F)(F)F)c2)s1)c1c(F)cccc1F` [Compound 91, 2,6-difluoro-N-(4-(oxazol-2-yl)-5-(3-(trifluoromethyl)phenyl)thiazol-2-yl)benzamide], the IC50 was 50 to 100 nM.

The compound `Cc1nc(NC(=O)c2c(F)cccc2F)sc1-c1cc(Br)sc1Br` [Compound 61, N-(5-(2,5-Dibromothiophen-3-yl)-4-methylthiazol-2-yl)-2,6-difluorobenzamide] had an IC50 of 200 to 500 nM.

On to `Cc1nc(NC(=O)c2c(F)cccc2F)sc1-c1cccc(C#N)c1` [Compound 13, N-[5-(3-Cyano-phenyl)-4-methyl-thiazol-2-yl]-2,6-difluoro-benzamide], for which the IC50 fell in the range of 100 to 200 nM.

Regarding `Cc1ncccc1C(=O)Nc1nc(C)c(-c2cccc(C(F)(F)F)c2)s1` [Compound 51, 2-Methyl-N-(4-methyl-5-(3-(trifluoromethyl)phenyl)thiazol-2-yl)nicotinamide], the IC50 was greater than 1000 nM.

As to `O=C(Nc1nc(/C=N\O)c(-c2cccc(C(F)(F)F)c2)s1)c1c(F)cccc1F` [Compound 72, (Z)-2,6-difluoro-N-(4-((hydroxyimino)methyl)-5-(3-(trifluoromethyl)phenyl)thiazol-2-yl)benzamide], the concentration for half-maximal inhibition (IC50) was greater than 1000 nM.

`Cc1nc(NC(=O)c2c(F)cccc2F)sc1-c1cc(C#N)c2c(c1)OCO2` [Compound 58, N-(5-(7-Cyanobenzo[d][1,3]dioxol-5-yl)-4-methylthiazol-2-yl)-2,6-difluorobenzamide] gave an IC50 of 200 to 500 nM.

Compound `COc1ccc(-c2nc(NC(=O)c3c(F)cccc3F)sc2-c2cccc(C(F)(F)F)c2)cc1OC` [Compound 109, N-(4-(3,4-Dimethoxyphenyl)-5-(3-(trifluoromethyl)phenyl)thiazol-2-yl)-2,6-difluorobenzamide] showed an IC50 greater than 1000 nM.

The compound `Cc1cnccc1NC(=O)c1ncc(-c2cc(-c3ncco3)ccc2C)s1` [Compound 132, 5-(2-methyl-5-(oxazol-2-yl)phenyl)-N-(3-methylpyridin-4-yl)thiazole-2-carboxamide] came in with an IC50 greater than 1000 nM.
